Several values for one entry are separate records, joined by “and”; a condition that tells them apart may be missing. Equal entries are not always repeated. Inconclusive results and toxic doses are left out.
Test system: P388 leukemia ip, CD2F1 mice, survival T/C
Assay: NCI In Vivo Anticancer Drug Screen. Data for tumor model P388 Leukemia (intraperitoneal) in CD2F1 (CDF1) mice
Settings: endpoint: median survival time, higher = longer survival
In short: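 Mice carrying the transplanted tumor received test compound or vehicle. Survival was recorded in each group, and the value is the treated-group measurement divided by that of the vehicle-treated control group.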

[1] = dose: 12.5 mg/kg/injection, schedule: Q01DX009 (ip), vehicle: saline with Tween-80
[2] = dose: 50.0 mg/kg/injection, schedule: Q01DX005 (ip), vehicle: saline with Tween-80
[3] = dose: 100.0 mg/kg/injection, schedule: Q01DX005 (ip), vehicle: saline with Tween-80
[4] = dose: 200.0 mg/kg/injection, schedule: Q01DX005 (ip), vehicle: saline with Tween-80
[5] = dose: 50.0 mg/kg/injection, schedule: Q01DX009 (ip), vehicle: saline
[6] = dose: 100.0 mg/kg/injection, schedule: Q01DX009 (ip), vehicle: saline
[7] = dose: 200.0 mg/kg/injection, schedule: Q01DX009 (ip), vehicle: saline
[8] = dose: 12.5 mg/kg/injection, schedule: Q01DX009 (ip), vehicle: water
[9] = dose: 25.0 mg/kg/injection, schedule: Q01DX009 (ip), vehicle: water
[10] = dose: 50.0 mg/kg/injection, schedule: Q01DX009 (ip), vehicle: saline with Tween-80
[11] = dose: 100.0 mg/kg/injection, schedule: Q01DX009 (ip), vehicle: saline with Tween-80
[12] = dose: 200.0 mg/kg/injection, schedule: Q01DX009 (ip), vehicle: saline with Tween-80

`COc1cc(C=Nc2cccc(Br)c2)ccc1N(CCCl)CCCl` was tested, and the T/C (dose: 3.3 mg/kg/injection, schedule: Q01DX009 (ip), vehicle: saline with Tween-80) was 154 % of control, the T/C (dose: 5.0 mg/kg/injection, schedule: Q01DX009 (ip), vehicle: saline with Tween-80) was 200 % of control and the T/C (dose: 5.56 mg/kg/injection, schedule: Q01DX009 (ip), vehicle: saline with Tween-80) was 209 % of control. The T/C (dose: 8.33 mg/kg/injection, schedule: Q01DX009 (ip), vehicle: saline with Tween-80) was 186 % of control, the T/C (dose: 11.0 mg/kg/injection, schedule: Q04DX003 (ip), vehicle: other) was 165 % of control and the T/C [1] was 204 % of control and 227 % of control. For the same molecule, the T/C (dose: 16.5 mg/kg/injection, schedule: Q04DX003 (ip), vehicle: other) was 184 % of control, the T/C (dose: 18.7 mg/kg/injection, schedule: Q01DX009 (ip), vehicle: saline with Tween-80) was 186 % of control and the T/C (dose: 25.0 mg/kg/injection, schedule: Q01DX009 (ip), vehicle: saline with Tween-80) was 166 % of control. The T/C (dose: 25.0 mg/kg/injection, schedule: Q04DX003 (ip), vehicle: other) was 230 % of control and the T/C (dose: 37.5 mg/kg/injection, schedule: Q04DX003 (ip), vehicle: other) was 107 % of control.
`S=C1N(c2ccc(Br)cc2)C2=Nc3ccccc3SC(=C2N=Nc2ccc(Br)cc2)N1c1ccc(Cl)cc1` was tested, and the T/C [2] was 93 % of control, the T/C [3] was 86 % of control and the T/C [4] was 91 % of control.
In the case of `CCCCCCCCCCCCS(=O)(=O)O`, the T/C (dose: 3.12 mg/kg/injection, schedule: Q01DX009 (ip), vehicle: saline with Tween-80) is reported as 119 % of control, the T/C (dose: 6.25 mg/kg/injection, schedule: Q01DX009 (ip), vehicle: saline with Tween-80) is reported as 111 % of control and 119 % of control and the T/C [1] is reported as 110 % of control and 112 % of control.
With `O=C1OC(C2OC(=O)C(=O)C2C(=O)c2ccc([N+](=O)[O-])cc2)C(C(=O)c2ccc([N+](=O)[O-])cc2)C1=O` (stereo not given) the T/C (dose: 60.0 mg/kg/injection, schedule: Q01DX005 (ip), vehicle: saline with Tween-80) was 98 % of control and the T/C (dose: 120.0 mg/kg/injection, schedule: Q01DX005 (ip), vehicle: saline with Tween-80) was 94 % of control.
`CCC1=CC2CC(c3cc4c(cc3OC)N(C)C3C(O)(C(=O)NC)C(OC(C)=O)C5(CC)C=CCN6CCC43C65)c3[nH]c4ccccc4c3CCN(C1)C2` (stereo not given) was tested, and the T/C (dose: 0.06 mg/kg/injection, schedule: Q01DX009 (ip), vehicle: water) was 101 % of control, the T/C (dose: 0.13 mg/kg/injection, schedule: Q01DX009 (ip), vehicle: water) was 101 % of control and the T/C (dose: 0.25 mg/kg/injection, schedule: Q01DX009 (ip), vehicle: water) was 95 % of control. The T/C (dose: 0.5 mg/kg/injection, schedule: Q01DX009 (ip), vehicle: water) was 89 % of control, the T/C (dose: 1.0 mg/kg/injection, schedule: Q01DX009 (ip), vehicle: water) was 94 % of control and the T/C (dose: 2.0 mg/kg/injection, schedule: Q01DX001 (ip), vehicle: water) was 103 % of control. The T/C (dose: 2.0 mg/kg/injection, schedule: Q01DX009 (ip), vehicle: water) was 97 % of control, the T/C (dose: 4.0 mg/kg/injection, schedule: Q01DX001 (ip), vehicle: water) was 99 % of control and the T/C (dose: 8.0 mg/kg/injection, schedule: Q01DX001 (ip), vehicle: water) was 98 % of control. For the same molecule, the T/C (dose: 16.0 mg/kg/injection, schedule: Q01DX001 (ip), vehicle: water) was 94 % of control, the T/C (dose: 25.0 mg/kg/injection, schedule: Q01DX001 (ip), vehicle: other) was 91 % of control and the T/C (dose: 32.0 mg/kg/injection, schedule: Q01DX001 (ip), vehicle: water) was 100 % of control. The T/C (dose: 100.0 mg/kg/injection, schedule: Q01DX001 (ip), vehicle: other) was 91 % of control, the T/C (dose: 200.0 mg/kg/injection, schedule: Q01DX001 (ip), vehicle: other) was 94 % of control and the T/C (dose: 400.0 mg/kg/injection, schedule: Q01DX001 (ip), vehicle: other) was 94 % of control.
In the case of `CSC(=S)n1nc(-c2ccccc2)c(N=Nc2cccc(F)c2)c1-c1ccccc1`, the T/C (dose: 100.0 mg/kg/injection, schedule: Q04DX002 (ip), vehicle: saline with Tween-80) is reported as 100 % of control, the T/C (dose: 200.0 mg/kg/injection, schedule: Q04DX002 (ip), vehicle: saline with Tween-80) is reported as 97 % of control and the T/C (dose: 400.0 mg/kg/injection, schedule: Q04DX002 (ip), vehicle: saline with Tween-80) is reported as 87 % of control.
With `O=S1(=O)CCC2=CC(C(F)(F)F)=CC(C(F)(F)F)=CN21` the T/C (dose: 12.5 mg/kg/injection, schedule: Q01DX005 (ip), vehicle: saline with Tween-80) was 109 % of control, the T/C (dose: 25.0 mg/kg/injection, schedule: Q01DX005 (ip), vehicle: saline with Tween-80) was 122 % of control and the T/C [2] was 107 % of control.
With `COc1ccc2cc3n(c(=O)c2c1O)CCc1cc2c(cc1-3)OCO2` the T/C (dose: 0.63 mg/kg/injection, schedule: Q01DX009 (ip), vehicle: distilled water + Tween-80) was 101 % of control, the T/C (dose: 1.25 mg/kg/injection, schedule: Q01DX009 (ip), vehicle: distilled water + Tween-80) was 101 % of control and the T/C (dose: 2.5 mg/kg/injection, schedule: Q01DX009 (ip), vehicle: distilled water + Tween-80) was 93 % of control. For the same molecule, the T/C (dose: 5.0 mg/kg/injection, schedule: Q01DX009 (ip), vehicle: distilled water + Tween-80) was 108 % of control, the T/C (dose: 10.0 mg/kg/injection, schedule: Q01DX009 (ip), vehicle: distilled water + Tween-80) was 101 % of control and the T/C (dose: 20.0 mg/kg/injection, schedule: Q01DX009 (ip), vehicle: distilled water + Tween-80) was 92 % of control.
`NC(=O)CSc1ncnc2nc[nH]c12` was tested, and the T/C [5] was 97 % of control, the T/C [6] was 100 % of control and the T/C [7] was 102 % of control.
With `CCOC(=O)C1=C(C)N(Cc2ccccc2)C2(O)C1=CC(=O)C(Cl)=C2Cl` (stereo not given) the T/C [5] was 99 % of control, the T/C [6] was 105 % of control and the T/C [7] was 108 % of control.
For `CCCCCC(CN(C)C)C(=O)CC(SCC)c1ccccc1` (stereo not given), the T/C [8] was 111 % of control and the T/C [9] was 100 % of control.
In the case of `O=C1CCCCC(=O)CS(=O)(=O)C1`, the T/C [10] is reported as 110 % of control, the T/C [11] is reported as 107 % of control and the T/C [12] is reported as 103 % of control.
With `O=C1c2cccc([N+](=O)[O-])c2C(=O)N1CC[P+](c1ccccc1)(c1ccccc1)c1ccccc1` the T/C (dose: 0.78 mg/kg/injection, schedule: Q01DX009 (ip), vehicle: water) was 97 % of control, the T/C (dose: 1.56 mg/kg/injection, schedule: Q01DX009 (ip), vehicle: water) was 100 % of control and the T/C (dose: 3.13 mg/kg/injection, schedule: Q01DX009 (ip), vehicle: water) was 94 % of control. For the same molecule, the T/C (dose: 6.25 mg/kg/injection, schedule: Q01DX009 (ip), vehicle: water) was 97 % of control, the T/C [8] was 95 % of control and the T/C [9] was 100 % of control. The T/C (dose: 50.0 mg/kg/injection, schedule: Q01DX009 (ip), vehicle: water) was 109 % of control and the T/C (dose: 100.0 mg/kg/injection, schedule: Q01DX009 (ip), vehicle: water) was 107 % of control.
For `COc1cccc2c1C(=O)c1c(O)c3c(c(O)c1C2=O)CC(O)(C(C)=O)CC3O` (stereo not given), the T/C (dose: 6.25 mg/kg/injection, schedule: Q01DX009 (ip), vehicle: other) was 100 % of control, the T/C (dose: 12.5 mg/kg/injection, schedule: Q01DX009 (ip), vehicle: other) was 92 % of control and the T/C (dose: 25.0 mg/kg/injection, schedule: Q01DX009 (ip), vehicle: other) was 91 % of control. For the same molecule, the T/C (dose: 50.0 mg/kg/injection, schedule: Q01DX009 (ip), vehicle: other) was 91 % of control, the T/C (dose: 100.0 mg/kg/injection, schedule: Q01DX009 (ip), vehicle: other) was 119 % of control and the T/C (dose: 200.0 mg/kg/injection, schedule: Q01DX009 (ip), vehicle: other) was 92 % of control. The T/C (dose: 400.0 mg/kg/injection, schedule: Q01DX009 (ip), vehicle: other) was 98 % of control.
For `CCOC(=O)C(CNc1ccc(OCc2ccccc2)cc1)NC(=O)c1ccccc1` (stereo not given), the T/C [10] was 105 % of control, the T/C [5] was 96 % of control and the T/C [11] was 100 % of control. The T/C [6] was 88 % of control, the T/C [12] was 87 % of control and the T/C [7] was 88 % of control. For the same molecule, the T/C (dose: 400.0 mg/kg/injection, schedule: Q01DX009 (ip), vehicle: saline with Tween-80) was 91 % of control.
In the case of `O=c1oc(-c2cccc(C(Cl)Cl)c2)ns1`, the T/C (dose: 100.0 mg/kg/injection, schedule: Q01DX009 (ip), vehicle: Klucel (hydroxypropylcellulose) (HPC)) is reported as 112 % of control, the T/C (dose: 200.0 mg/kg/injection, schedule: Q01DX009 (ip), vehicle: Klucel (hydroxypropylcellulose) (HPC)) is reported as 107 % of control and the T/C (dose: 400.0 mg/kg/injection, schedule: Q01DX009 (ip), vehicle: Klucel (hydroxypropylcellulose) (HPC)) is reported as 105 % of control.
`CC(=O)ONC(=O)CSc1nn2cc(-c3ccccc3)nc2s1` was tested, and the T/C [2] was 103 % of control, the T/C [3] was 97 % of control and the T/C [4] was 95 % of control.
